Tests used:
[1] = tested on: synthesis of LTB4 in human whole blood; assay: Human whole blood assay (calcimycin-stimulated LTB4 synthesis); format: cell-based; settings: Homo sapiens; read-out: Human Whole Blood LTB4 Assay for FLAP (IC50 nM)
Protocol: Compounds are additionally tested in a human whole blood assay to determine their ability to inhibit the synthesis of LTB4 in a cellular system. Compounds are combined with heparinized human whole blood and incubated for 15 minutes at 37° C. Calcimycin (20 μM final, prepared in phosphate-buffered saline, pH 7.4) is then added and the mixture is incubated for another 30 minutes at 37° C. The samples are centrifuged for 5 min at low speed (1500×g) and the plasma layer is removed. Plasma LTB4 concentrations are then measured using an antibody-based homogenous time-resolved fluorescence method (CisBio, Bedford, Mass.).

[2] = target: T1, recombinant human FLAP protein (Homo sapiens, UniProt P20292); assay: FLAP binding assay (Scintillation Proximity Assay, displacement of [125I]L-691,831); settings: read-out: Human FLAP SPA Binding (IC50 nM)
T1 construct: made in house; host or cells: Sf9 insect cells (membrane fraction, 100,000 x g pellet)
T1 sequence (P20292 1-161): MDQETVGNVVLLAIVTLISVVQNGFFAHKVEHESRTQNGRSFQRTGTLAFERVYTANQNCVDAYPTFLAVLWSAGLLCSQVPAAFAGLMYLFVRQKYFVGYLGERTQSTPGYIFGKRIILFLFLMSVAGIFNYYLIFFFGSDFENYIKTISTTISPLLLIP
Protocol: Compounds are assessed for the ability to bind to FLAP in a binding assay that measures compound-specific displacement of an iodinated (^125I) FLAP inhibitor via a Scintillation Proximity Assay format (adapted from S. Charleson et al., Mol. Pharmacol., 1992, 41, 873-879).
Cell pellets produced from sf9 insect cells expressing recombinant human FLAP protein are resuspended in buffer A [15 mM Tris-HCl (pH 7.5), 2 mM MgCl2, 0.3 mM EDTA, 1 mM PMSF]. The cells are lysed with a Dounce homogenizer and the material is centrifuged at 10,000×g for 10 minutes. The supernatant is then collected and centrifuged at 100,000×g for 60 minutes. To prepare membrane protein for an assay, an aliquot of the 100,000×g pellet is resuspended in 1 ml of buffer A, Dounce homogenized, and finally subjected to polytron mixing (30 seconds). Membrane protein (25 μl, 5 μg) is mixed with WGA SPA beads (Amersham) and stirred for 1 h. To an assay plate (Perkin Elmer FlexiPlate) is added 25 μl of test compound prepared in Binding buffer [100 mM Tris (pH 7.5), 140 mM NaCl, 5% glycerol, 2 mM EDTA, 0.5 mM TCEP, 0.05% Tween 20], 25 μl of [^125I]L-691,831 (an iodinated analog of MK-591, Charleson et al. Mol. Pharmacol., 41, 873-879, 1992) and finally 50 μl of the bead/protein mixture. (final concentrations: beads, 200 μg/well; protein, 5 μg/well; [^125I] probe, 0.08 nM/well (17 nCi/well). The plates are shaken for 2 h before reading on a Microbeta plate reader. Non-specific binding is determined by the addition of 10 μM cold L-691,831 compound.

| Compound | IC50 [1] [nM] | IC50 [2] [nM] |
| --- | --- | --- |
| CN(CCS(C)(=O)=O)C(=O)c1cccc2c(C3(c4ccc(-c5cnc(N)nc5)cc4)CCC3)c[nH]c12 [Example 2, 3-{1-[4-(2-aminopyrimidin-5-yl)phenyl]cyclobutyl}-N-methyl-N-[2-(methylsulfonyl)ethyl]-1H-indole-7-carboxamide] | 490 | 1.9 |
| CS(=O)(=O)CCNC(=O)c1cccc2c(C3(c4ccc(-c5cnc(N)nc5)cc4)CCC3)c[nH]c12 [Example 3, 3-{1-[4-(2-aminopyrimidin-5-yl)phenyl]cyclobutyl}-N-[2-(methylsulfonyl)ethyl]-1H-indole-7-carboxamide] | 490 | 1.4 |
| Nc1ncc(-c2ccc(C3(c4c[nH]c5c(C(=O)NCCS(N)(=O)=O)cccc45)CCC3)cc2)cn1 [Example 4, 3-{1-[4-(2-aminopyrimidin-5-yl)phenyl]cyclobutyl}-N-(2-sulfamoylethyl)-1H-indole-7-carboxamide] | 2800 | 1.2 |
| Nc1ncc(-c2ccc(C3(c4c[nH]c5c(C(=O)NC6CCS(=O)(=O)C6)cccc45)CCC3)cc2)cn1 (stereo not shown) [Example 5, 3-{1-[4-(2-aminopyrimidin-5-yl)phenyl]cyclobutyl}-N-(1,1-dioxidotetrahydrothiophen-3-yl)-1H-indole-7-carboxamide] | 220 | 0.72 |
| CNC(=O)c1cccc2c(C3(c4ccc(-c5cnc(N)nc5)cc4)CCC3)c[nH]c12 [Example 6, 3-[1-[4-(2-aminopyrimidin-5-yl)phenyl]cyclobutyl]-N-methyl-1H-indole-7-carboxamide] | 29 | 1.5 |
| CN(C)C(=O)c1cccc2c(C3(c4ccc(-c5cnc(N)nc5)cc4)CCC3)c[nH]c12 [Example 7, 3-{1-[4-(2-aminopyrimidin-5-yl)phenyl]cyclobutyl}-N,N-dimethyl-1H-indole-7-carboxamide] | 210 | 2.1 |
| Cc1ccc(-c2coc(C3(c4ccc(-c5cnc(N)nc5)cc4)CCC3)n2)cn1 [Example 8, 5-(4-{1-[4-(6-methylpyridin-3-yl)-1,3-oxazol-2-yl]cyclobutyl}phenyl)pyrimidin-2-amine] | 410 | 2.8 |
| Cc1nc(CNC(=O)c2cccc3c(C4(c5ccc(-c6cnc(N)nc6)cc5)CCC4)c[nH]c23)no1 [Example 9, 3-{1-[4-(2-aminopyrimidin-5-yl)phenyl]cyclobutyl}-N-[(5-methyl-1,2,4-oxadiazol-3-yl)methyl]-1H-indole-7-carboxamide] | 27 | 2.2 |
| Cc1cc(CN(C)C(=O)c2cccc3c(C4(c5ccc(-c6cnc(N)nc6)cc5)CCC4)c[nH]c23)[nH]n1 [Example 13, 3-{1-[4-(2-aminopyrimidin-5-yl)phenyl]cyclobutyl}-N-methyl-N-[(3-methyl-1H-pyrazol-5-yl)methyl]-1H-indole-7-carboxamide] | 320 | 1.4 |
| Cc1ccc(-c2cnc(C3(c4ccc(-c5cnc(N)nc5)cc4)CCC3)[nH]2)cn1 [Example 14, 5-(4-{1-[5-(6-methylpyridin-3-yl)-1H-imidazol-2-yl]cyclobutyl}phenyl)pyrimidin-2-amine] | > 5000 | 30 |
| COc1cncc(-c2ccc(C(c3ncc(-c4ccc(CO)nc4)s3)C(C)C)cc2)c1 (stereo not shown) [Example 25, [5-(2-{1-[4-(5-methoxypyridin-3-yl)phenyl]-2-methylpropyl}-1,3-thiazol-5-yl)pyridin-2-yl]methanol] | > 5000 | 36 |

Next, values leading:

| IC50 [1] [nM] | IC50 [2] [nM] | Compound |
| --- | --- | --- |
| 1300 | 1.3 | Nc1ncc(-c2ccc(C3(c4c[nH]c5cc(C(=O)NC6CCS(=O)(=O)C6)ccc45)CCC3)cc2)cn1 (stereo not shown) [Example 1, 3-{1-[4-(2-aminopyrimidin-5-yl)phenyl]cyclobutyl}-N-(1,1-dioxidotetrahydrothiophen-3-yl)-1H-indole-6-carboxamide] |
| 340 | 2.4 | CCc1nc(CN(C)C(=O)c2cccc3c(C4(c5ccc(-c6cnc(N)nc6)cc5)CCC4)c[nH]c23)no1 [Example 10, 3-{1-[4-(2-aminopyrimidin-5-yl)phenyl]cyclobutyl}-N-[(5-ethyl-1,2,4-oxadiazol-3-yl)methyl]-N-methyl-1H-indole-7-carboxamide] |
| 230 | 3.3 | Cc1nnc(CN(C)C(=O)c2cccc3c(C4(c5ccc(-c6cnc(N)nc6)cc5)CCC4)c[nH]c23)o1 [Example 11, 3-{1-[4-(2-aminopyrimidin-5-yl)phenyl]cyclobutyl}-N-methyl-N-[(5-methyl-1,3,4-oxadiazol-2-yl)methyl]-1H-indole-7-carboxamide] |
| 680 | 2.7 | CCc1noc(CN(CC)C(=O)c2cccc3c(C4(c5ccc(-c6cnc(N)nc6)cc5)CCC4)c[nH]c23)n1 [Example 12, 3-{1-[4-(2-aminopyrimidin-5-yl)phenyl]cyclobutyl}-N-ethyl-N-[(3-ethyl-1,2,4-oxadiazol-5-yl)methyl]-1H-indole-7-carboxamide] |
| 220 | 1.8 | Cc1ccc(-c2cnc(C3(c4ccc(-c5cnc(N)nc5)cc4)CCC3)s2)cn1 [Example 15, 5-(4-{1-[5-(6-methylpyridin-3-yl)-1,3-thiazol-2-yl]cyclobutyl}phenyl)pyrimidin-2-amine] |
| 1400 | 7.1 | Cc1ccc(-c2cnc(C3(c4ccc(-c5cnc(N)nc5)cc4)CCC3)o2)cn1 [Example 16, 5-(4-{1-[5-(6-methylpyridin-3-yl)-1,3-oxazol-2-yl]cyclobutyl}phenyl)pyrimidin-2-amine] |
| 250 | 3.4 | Cc1cc(CN(C)C(=O)c2cccc3c(C4(c5ccc(-c6cnc(N)nc6)cc5)CCC4)c[nH]c23)no1 [Example 17, 3-{1-[4-(2-aminopyrimidin-5-yl)phenyl]cyclobutyl}-N-methyl-N-[(5-methyl-1,2-oxazol-3-yl)methyl]-1H-indole-7-carboxamide] |
| 680 | 4 | Cc1ccc(-c2cc(C3(c4ccc(-c5cnc(N)nc5)cc4)CCC3)[nH]n2)cn1 [Example 18, 5-(4-{1-[5-(6-methylpyridin-3-yl)-1H-pyrazol-3-yl]cyclobutyl}phenyl)pyrimidin-2-amine] |
| > 5000 | 510 | Cc1ccc(-c2cc(C3(c4ccc(-c5cnc(N)nc5)cc4)CCC3)n(C)n2)cn1 [Example 19, 5-(4-{1-[1-methyl-3-(6-methylpyridin-3-yl)-1H-pyrazol-5-yl]cyclobutyl}phenyl)pyrimidin-2-amine] |
| 430 | 5.1 | Cc1ccc(-c2cc(C3(c4ccc(-c5cnc(N)nc5)cc4)CCC3)nn2C)cn1 [Example 20, 5-(4-{1-[1-methyl-5-(6-methylpyridin-3-yl)-1H-pyrazol-3-yl]cyclobutyl}phenyl)pyrimidin-2-amine] |
| 1600 | 38 | CC(C)C(C)(c1ccc(-c2cnc(N)nc2)cc1)c1nc(N2CCNCC2)no1 (stereo not shown) [Example 21, 5-[4-[1,2-dimethyl-1-(3-piperazin-1-yl-1,2,4-oxadiazol-5-yl)propyl]phenyl]pyrimidin-2-amine; formic acid] |
| 710 | 44 | CC(C)C(C)(c1ccc(-c2cnc(N)nc2)nc1)c1nc(-c2cnn(C)c2)no1 (stereo not shown) [Example 22, 5-(5-{3-methyl-2-[3-(1-methyl-1H-pyrazol-4-yl)-1,2,4-oxadiazol-5-yl]butan-2-yl}pyridin-2-yl)pyrimidin-2-amine] |
| > 5000 | 890 | COc1cncc(-c2ccc(C(c3ncc(Br)s3)C(C)C)cc2)c1 (stereo not shown) [Example 24, 5-bromo-2-[1-[4-(5-methoxy-3-pyridyl)phenyl]-2-methyl-propyl]thiazole] |
| 39 | 4.6 | CN(C)CCn1cc(-c2cc([C@@](C)(c3ccc(-c4cnc(N)nc4)cc3)C3CC3)no2)cn1 [Example 26, 5-{4-[(1R)-1-cyclopropyl-1-(5-{1-[2-(dimethylamino)ethyl]-1H-pyrazol-4-yl}-1,2-oxazol-3-yl)ethyl]phenyl}pyrimidin-2-amine] |
| 1800 | 20 | COc1cncc(-c2ccc(C(C)(c3cn(Cc4ccccn4)c4ccccc34)C(C)C)cc2)c1 (stereo not shown) [Example 27, 3-{2-[4-(5-methoxypyridin-3-yl)phenyl]-3-methylbutan-2-yl}-1-(pyridin-2-ylmethyl)-1H-indole] |

Reference: patent US9174980B2, “Heterocyclic compounds as inhibitors of leukotriene production” (Boehringer Ingelheim International GmbH, priority 2012, dated 2015)
